Assay results reported in patent publication US7485637B2, “Benzoyl-tetrahydropiperidine derivatives” (Hoffmann-La Roche Inc., priority 2005, dated 2009).

Biological target: T1, mGlyT-1b (Mus musculus, UniProt P28571)
T1 construct: host or cells: Flp-in-CHO
T1 sequence (P28571 1-651 isoform P28571-2): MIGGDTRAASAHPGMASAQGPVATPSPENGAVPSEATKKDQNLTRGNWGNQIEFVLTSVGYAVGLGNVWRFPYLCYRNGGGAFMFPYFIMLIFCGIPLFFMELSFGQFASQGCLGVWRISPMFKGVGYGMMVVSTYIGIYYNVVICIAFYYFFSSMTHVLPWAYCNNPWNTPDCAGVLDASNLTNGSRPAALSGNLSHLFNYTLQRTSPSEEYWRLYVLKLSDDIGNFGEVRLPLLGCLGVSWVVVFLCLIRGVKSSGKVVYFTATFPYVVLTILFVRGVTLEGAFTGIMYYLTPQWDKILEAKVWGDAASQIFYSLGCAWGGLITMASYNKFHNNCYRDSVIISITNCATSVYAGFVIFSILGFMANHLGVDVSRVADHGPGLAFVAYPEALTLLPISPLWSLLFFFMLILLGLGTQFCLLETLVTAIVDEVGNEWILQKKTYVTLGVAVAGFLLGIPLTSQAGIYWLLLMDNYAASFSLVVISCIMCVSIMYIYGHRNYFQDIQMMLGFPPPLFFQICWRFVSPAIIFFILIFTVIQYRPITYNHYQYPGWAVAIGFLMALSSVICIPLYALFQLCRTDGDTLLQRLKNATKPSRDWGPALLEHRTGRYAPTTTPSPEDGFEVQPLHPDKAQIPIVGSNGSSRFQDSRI
Assay: Glycine Uptake Inhibition Assay (mGlyT-1b)
Type: cell-based
Details: [3H]-glycine uptake, Flp-in-CHO cells transfected with mGlyT-1b cDNA, 20 min preincubation at 22° C.; read-out: IC50 (μM) at GlyT-1
Protocol: DMEM complete medium: Nutrient mixture F-12 (Gibco Life-technologies), fetal bovine serum (FBS) 5%, (Gibco life technologies), Penicillin/Streptomycin 1% (Gibco life technologies), Hygromycin 0.6 mg/ml (Gibco life technologies), Glutamine 1 mM Gibco life technologies)
Uptake buffer (UB): 150 mM NaCl, 10 mM Hepes-Tris, pH 7.4, 1 mM CaCl2, 2.5 mM KCl, 2.5 mM MgSO4, 10 mM (+) D-glucose.
Flp-in™-CHO (Invitrogen Cat n° R758-07) cells stably transfected with mGlyT1b cDNA.
Glycine Uptake Inhibition Assay (mGlyT-1b)
On day 1 mammalian cells, (Flp-in™-CHO), transfected with mGlyT-1b cDNA, were plated at the density of 40,000 cells/well in complete F-12 medium, without hygromycin in 96-well culture plates. On day 2, the medium was aspirated and the cells were washed twice with uptake buffer (UB). The cells were then incubated for 20 min at 22° C. with either (i) no potential competitor, (ii) 10 mM non-radioactive glycine, (iii) a concentration of a potential inhibitor. A range of concentrations of the potential inhibitor was used to generate data for calculating the concentration of inhibitor resulting in 50% of the effect (e.g. IC50, the concentration of the competitor inhibiting glycine uptake of 50%). A solution was then immediately added containing [^3H]-glycine 60 nM (11-16 Ci/mmol) and 25 μM non-radioactive glycine. The plates were incubated with gentle shaking and the reaction was stopped by aspiration of the mixture and washing (three times) with ice-cold UB. The cells were lysed with scintillation liquid, shaken 3 hours and the radioactivity in the cells was counted using a scintillation counter.

Structure (SMILES): O=C(c1cc([N+](=O)[O-])ccc1N1CCOCC1)N1CC=C(c2ccccc2)CC1 [Example 1, (2-Morpholin-4-yl-5-nitro-phenyl)-(4-phenyl-3,6-dihydro-2H-pyridin-1-yl)-methanone]
- IC50: 0.803 µM

Structure (SMILES): O=C(c1cc([N+](=O)[O-])ccc1N1CCOCC1)N1CC=C(c2ccc(Cl)cc2)CC1 [Example 2, [4-(4-Chloro-phenyl)-3,6-dihydro-2H-pyridin-1-yl]-(2-morpholin-4-yl-5-nitrophenyl) methanone]
- IC50: 0.432 µM

Structure (SMILES): CC(C)Oc1ccc(C#N)cc1C(=O)N1CC=C(c2ccc(Cl)cc2)CC1 [Example 9, 3-[4-(4-Chloro-phenyl)-3,6-dihydro-2H-pyridine-1-carbonyl]-4-isopropoxy-benzonitrile]
- IC50: 0.28 µM

Structure (SMILES): CS(=O)(=O)c1ccc(C2=CCN(C(=O)c3cc([N+](=O)[O-])ccc3N3CCOCC3)CC2)cc1 [Example 6, [4-(4-Methanesulfonyl-phenyl)-3,6-dihydro-2H-pyridin-1-yl]-(2-morpholin-4-yl-5-nitro-phenyl)-methanone]
- IC50: 0.251 µM

Structure (SMILES): CS(=O)(=O)c1ccc(C2=CCN(C(=O)c3cc(S(C)(=O)=O)ccc3OC3CCCC3)CC2)cc1 [Example 8, (2-Cyclopentyloxy-5-methanesulfonyl-phenyl)-[4-(4-methanesulfonyl-phenyl)-3,6-dihydro-2H-pyridin-1-yl]-methanone]
- IC50: 0.201 µM

Structure (SMILES): CS(=O)(=O)c1ccc(OCC(F)(F)F)c(C(=O)N2CC=C(c3ccc(C(F)(F)F)cc3)CC2)c1 [Example 4, [5-Methanesulfonyl-2-(2,2,2-trifluoro-ethoxy)-phenyl]-[4-(4-trifluoromethyl-phenyl)3,6-dihydro-2H-pyridin-1-yl]-methanone]
- IC50: 0.122 µM

Structure (SMILES): CS(=O)(=O)c1ccc(N2CCOCC2)c(C(=O)N2CC=C(c3ccc(C(F)(F)F)cc3)CC2)c1 [Example 5, (5-Methanesulfonyl-2-morpholin-4-yl-phenyl)-[4-(4-trifluoromethyl-phenyl)-3,6 dihydro-2H-pyridin-1-yl]-methanone]
- IC50: 0.232 µM

Structure (SMILES): N#Cc1ccc(C2=CCN(C(=O)c3cc([N+](=O)[O-])ccc3N3CCOCC3)CC2)cc1 [Example 3, 4-[1-(2-Morpholin-4-yl-5-nitro-benzoyl)-1,2,3,6-tetrahydro-pyridin-4-yl]benzonitrile]
- IC50: 0.27 µM

Structure (SMILES): CS(=O)(=O)c1ccc(OCC2CC2)c(C(=O)N2CC=C(c3ccc(Cl)cc3)CC2)c1 [Example 10, [4-(4-Chloro-phenyl)-3,6-dihydro-2H-pyridin-1-yl]-(2-cyclopropylmethoxy-5-methanesulfonyl-phenyl)-methanone]
- IC50: 0.056 µM

Structure (SMILES): CC(C)Oc1ccc(S(C)(=O)=O)cc1C(=O)N1CC=C(c2ccc(S(C)(=O)=O)cc2)CC1 [Example 7, (2-Isopropoxy-5-methanesulfonyl-phenyl)-[4-(4-methanesulfonyl-phenyl)-3,6-dihydro-2H-pyridin-1-yl]-methanone]
- IC50: 0.87 µM
